The record followed here is publication PMC7812938, “Dehydrobufotenin extracted from the Amazonian toad Rhinella marina (Anura: Bufonidae) as a prototype molecule for the development of antiplasmodial drugs” (The Journal of Venomous Animals and Toxins Including …, 2021).

Where two headings read alike, the source gives them in different places.

For data set [1], the system named is P. falciparum W2 strain (chloroquine resistant). In words: In vitro antiplasmodial activity. Format: cell-based, Plasmodium falciparum. To be noted: read-out: IC50 ± SD (drug concentration that reduced parasite viability in 50%). From the text:
P. falciparum continuous culture was maintained as previously described with minor modifications. […] The parasites at early stages were synchronized at ring stage by sorbitol treatment. Initial parasitemia was adjusted to 0.5% with 2% hematocrit in all experiments.
In vitro antiplasmodial activity of the bufadienolides (compounds dehydrobufotenin, marinobufotoxin, marinobufagin and bufalin) was done in 96 well plates. The growth inhibition of intraerythrocytic forms and parasite morphology in culture was assessed by microscopic observation of the Giemsa-stained thin blood films. Ring stage parasites (0.5% parasitemia and 2% hematocrit) were added to each well of 96-well microculture plates. The compounds (dehydrobufotenin, marinobufotoxin, marinobufagin and bufalin) were dissolved in DMSO and diluted to concentrations ranging from 0.78 to 100 μg/mL using complete medium and stored a 4 °C. After incubation at 37 °C for 48 hours, P. falciparum growth inhibition was assessed in Giemsa-stained smears by observing 5,000 erythrocytes per 1 thin blood film in triplicate. The culture medium was replaced with fresh medium with or without test samples/control drugs. […] All experiments were performed in triplicate.
(§1) The coefficients of regression of these curves were calculated using the method of least squares. The LD50 were determined based on the equation of the curve obtained by plotting the % of cellular death versus the concentration of compound (GraphPad Prism Software, version 5.0 for Windows, San Diego, California, USA). The average IC50 and LD50 were compared using ANOVA. Statistical significance was defined at the 5% level (P<0.05).

Data set [2] deals with WI-26VA4 human pulmonary fibroblast cells. The data set is described as follows: In vitro cytotoxicity, MTT assay. To be noted: for SI (selectivity index): SI = LD50 Cell / IC50 P. falciparum, WI-26VA4 vs W2; for LD50 ± SD (lethal drug concentration that reduced WI-26VA4 cells viability in 50%): WI-26VA4 human pulmonary fibroblast cells, MTT, 24 hours, mean and SD of triplicate experiments. Format: cell-based. The protocol: The cells were washed with culture medium, trypsinized, distributed in a flat-bottomed 96-well plate (5×10^3 cells/well), and incubated for 18 hours at 37 °C for cell adherence. The compounds (20 μL) were diluted in different concentrations ranging from 0.2 - 200 μg/mL and incubated with the cells for 24 hours in a 5% CO2 atmosphere at 37 °C.
A 3-(4,5-dimethylthiazol-2-yl)-2,5-diphenyltetrazolium bromide (MTT) solution (5 mg/mL; 20 μL/well) was added to evaluate mitochondrial viability; after a further 3 hours incubation, the supernatants were carefully removed, 100 μL of DMSO was added to each well, and the reactions were mixed to solubilize the formazan crystals. […] The cell viability was expressed as a percentage of the control absorbance in the untreated cells after subtracting the appropriate background.
A selectivity index (SI) corresponding to the ratio between the cytotoxic and antiplasmodial activities of each compound tested. The values greater than 10 were considered indicative of lack of toxicity, whereas the substances with values below 10 were considered toxic. The SI index was calculated as follow:
SI=LD50 Cell/IC50 P.falciparum
as §1
A general note: Tetrazolium dyes change colour on reduction, which living cells bring about.

The mark [3] stands for this setting: Plasmodium falciparum, W2, 48 h.

For `C[C@]12CC[C@H](O)C[C@H]1CC[C@@H]1[C@@H]2CC[C@]2(C)[C@@H](c3ccc(=O)oc3)CC[C@]12O` [Bufalin], in data set [1] (P. falciparum W2 (chloroquine-resistant), 48 hours, Giemsa-stained smears, mean and SD of triplicate experiments), the IC50 was 3.44 ± 0.43 µM. In data set [2], the “SI (selectivity index)” value is reported as 7.52. Also, the “LD50 ± SD (lethal drug concentration that reduced WI-26VA4 cells viability in 50%)” value in data set [2] turned out to be 25.9 ± 7.04 µM; in data set [2] (listed as bufalin), 25.9 µM.

For the compound `CCN(CC)CCCC(C)Nc1ccnc2cc(Cl)ccc12` (stereo not drawn) [Chloroquine (CQ), Chloroquine, reference compound], the IC50 in data set [1] (setting [3]) was 1.04 ± 0.21 µM.

`C[N+]1(C)CCc2c[nH]c3ccc(O)c1c23` [Dehydrobufotenine, Dehydrobufotenin]: the IC50 in data set [1] (setting [3]) amounted to 19.1 ± 0.2 µM. In data set [2], the “SI (selectivity index)” value amounted to 12.33 and the “LD50 ± SD (lethal drug concentration that reduced WI-26VA4 cells viability in 50%)” value amounted to 235.76 ± 4.03 µM. In data set [2] (listed as dehydrobufotenin), the “SI (selectivity index)” value is recorded as above 10 and the “LD50 ± SD (lethal drug concentration that reduced WI-26VA4 cells viability in 50%)” value worked out at 235.76 µM.

For `CC12CCC(O)CC1(O)CCC1C2CCC2(C)C(c3ccc(=O)oc3)CC3OC312` (stereo not drawn) [Marinobufagin], the IC50 in data set [1] (setting [3]) was 3.89 ± 0.42 µM. Moreover, in data set [2], the “SI (selectivity index)” value is given as 0.78 and the “LD50 ± SD (lethal drug concentration that reduced WI-26VA4 cells viability in 50%)” value turned out to be 3.04 ± 0.25 µM. The “LD50 ± SD (lethal drug concentration that reduced WI-26VA4 cells viability in 50%)” value in data set [2] (listed as marinobufagin) came out at 3.04 µM.

Turning to `CC12CCC(OC(=O)CCCCCCC(=O)NC(CCCNC(=N)N)C(=O)O)CC1(O)CCC1C2CCC2(C)C(c3ccc(=O)oc3)CC3OC312` (stereo not drawn) [Marinobufotoxin, 3-(N-suberoylargininyl) marinobufagin], the IC50 in data set [1] (setting [3]) came out at 5.31 ± 0.25 µM. Moreover, in data set [2], the “SI (selectivity index)” value amounted to 1.67 and the “LD50 ± SD (lethal drug concentration that reduced WI-26VA4 cells viability in 50%)” value came out at 8.89 ± 2.66 µM. Moreover, the “LD50 ± SD (lethal drug concentration that reduced WI-26VA4 cells viability in 50%)” value in data set [2] (listed as marinobufotoxin) was 8.89 µM.
